# According to ChEMBL document CHEMBL5291721, “A preclinical secondary pharmacology resource illuminates target-adverse drug reaction associations of marketed drugs” (Nat Commun, 2023):
# Key:
# [1] = target: T1, Muscarinic acetylcholine receptor M4 (Homo sapiens, UniProt P08173)
# T1 sequence (P08173 whole entry): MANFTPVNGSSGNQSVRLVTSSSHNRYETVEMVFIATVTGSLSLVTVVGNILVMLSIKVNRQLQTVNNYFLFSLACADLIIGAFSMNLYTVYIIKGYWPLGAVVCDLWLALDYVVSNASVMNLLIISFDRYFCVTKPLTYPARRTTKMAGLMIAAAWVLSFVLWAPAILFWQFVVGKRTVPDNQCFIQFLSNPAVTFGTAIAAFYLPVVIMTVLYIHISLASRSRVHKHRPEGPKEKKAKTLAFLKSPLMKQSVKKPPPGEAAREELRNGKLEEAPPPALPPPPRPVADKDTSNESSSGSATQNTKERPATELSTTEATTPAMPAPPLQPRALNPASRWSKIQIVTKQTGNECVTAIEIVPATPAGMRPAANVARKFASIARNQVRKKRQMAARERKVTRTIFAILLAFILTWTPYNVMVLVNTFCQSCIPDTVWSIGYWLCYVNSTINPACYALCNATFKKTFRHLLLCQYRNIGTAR
# D(1B) dopamine receptor = D(1B) dopamine receptor (Homo sapiens, UniProt P21918)
# Sequence of D(1B) dopamine receptor (P21918 whole entry): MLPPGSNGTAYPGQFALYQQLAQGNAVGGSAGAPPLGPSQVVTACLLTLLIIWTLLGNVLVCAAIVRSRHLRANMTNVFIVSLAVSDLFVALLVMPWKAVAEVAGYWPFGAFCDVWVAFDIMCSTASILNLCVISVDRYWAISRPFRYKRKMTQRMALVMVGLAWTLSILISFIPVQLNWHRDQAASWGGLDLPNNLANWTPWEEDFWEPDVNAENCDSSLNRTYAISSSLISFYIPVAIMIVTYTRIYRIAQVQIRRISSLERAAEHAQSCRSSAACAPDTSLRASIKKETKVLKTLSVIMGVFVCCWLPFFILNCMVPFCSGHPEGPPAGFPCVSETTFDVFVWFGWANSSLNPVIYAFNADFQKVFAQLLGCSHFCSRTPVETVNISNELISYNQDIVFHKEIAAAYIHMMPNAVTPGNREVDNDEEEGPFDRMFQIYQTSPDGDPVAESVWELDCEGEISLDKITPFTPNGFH
# [2] = target: 5-hydroxytryptamine receptor 5A (Homo sapiens, UniProt P47898)
# Sequence of 5-hydroxytryptamine receptor 5A (P47898 whole entry): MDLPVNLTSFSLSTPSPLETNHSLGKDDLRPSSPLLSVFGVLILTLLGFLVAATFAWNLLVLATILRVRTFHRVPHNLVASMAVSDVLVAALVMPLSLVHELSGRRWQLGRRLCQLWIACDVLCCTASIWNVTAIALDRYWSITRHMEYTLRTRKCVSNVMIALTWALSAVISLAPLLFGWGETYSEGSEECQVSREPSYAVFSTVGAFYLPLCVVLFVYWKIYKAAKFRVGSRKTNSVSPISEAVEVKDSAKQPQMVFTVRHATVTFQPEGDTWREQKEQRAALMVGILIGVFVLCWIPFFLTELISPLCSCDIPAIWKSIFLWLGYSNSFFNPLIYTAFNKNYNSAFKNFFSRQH
# Substance-K receptor = target: T2, Substance-K receptor (Homo sapiens, UniProt P21452)
# T2 sequence (P21452 whole entry): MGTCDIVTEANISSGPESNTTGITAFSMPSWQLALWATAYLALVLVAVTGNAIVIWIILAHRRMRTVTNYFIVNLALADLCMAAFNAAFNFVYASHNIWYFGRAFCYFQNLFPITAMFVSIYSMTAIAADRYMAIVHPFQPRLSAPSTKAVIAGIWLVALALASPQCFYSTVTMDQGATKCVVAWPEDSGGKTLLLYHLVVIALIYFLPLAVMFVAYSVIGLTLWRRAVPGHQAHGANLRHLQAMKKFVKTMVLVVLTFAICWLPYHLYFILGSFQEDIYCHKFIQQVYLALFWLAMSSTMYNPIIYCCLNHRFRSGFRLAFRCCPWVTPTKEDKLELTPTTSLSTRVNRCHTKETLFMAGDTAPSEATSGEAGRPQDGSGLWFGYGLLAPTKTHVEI
# [3] = target: T3, Alpha-2A adrenergic receptor (Homo sapiens, UniProt P08913)
# T3 sequence (P08913 whole entry): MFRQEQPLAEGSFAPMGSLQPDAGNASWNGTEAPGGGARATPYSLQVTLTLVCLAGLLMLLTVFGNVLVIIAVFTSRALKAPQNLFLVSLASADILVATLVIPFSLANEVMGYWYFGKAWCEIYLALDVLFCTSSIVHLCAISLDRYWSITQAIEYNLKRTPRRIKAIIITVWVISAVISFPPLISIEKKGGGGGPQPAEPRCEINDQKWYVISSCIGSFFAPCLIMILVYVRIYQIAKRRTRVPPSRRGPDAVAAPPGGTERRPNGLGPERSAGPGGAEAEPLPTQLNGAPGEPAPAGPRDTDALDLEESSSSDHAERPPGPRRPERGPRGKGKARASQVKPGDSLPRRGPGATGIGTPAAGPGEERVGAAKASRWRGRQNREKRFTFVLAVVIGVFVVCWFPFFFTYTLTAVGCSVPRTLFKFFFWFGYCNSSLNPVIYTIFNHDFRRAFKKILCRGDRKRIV
# Estrogen receptor = target: T4, Estrogen receptor (Homo sapiens, UniProt P03372); format: functional
# T4 sequence (P03372 whole entry): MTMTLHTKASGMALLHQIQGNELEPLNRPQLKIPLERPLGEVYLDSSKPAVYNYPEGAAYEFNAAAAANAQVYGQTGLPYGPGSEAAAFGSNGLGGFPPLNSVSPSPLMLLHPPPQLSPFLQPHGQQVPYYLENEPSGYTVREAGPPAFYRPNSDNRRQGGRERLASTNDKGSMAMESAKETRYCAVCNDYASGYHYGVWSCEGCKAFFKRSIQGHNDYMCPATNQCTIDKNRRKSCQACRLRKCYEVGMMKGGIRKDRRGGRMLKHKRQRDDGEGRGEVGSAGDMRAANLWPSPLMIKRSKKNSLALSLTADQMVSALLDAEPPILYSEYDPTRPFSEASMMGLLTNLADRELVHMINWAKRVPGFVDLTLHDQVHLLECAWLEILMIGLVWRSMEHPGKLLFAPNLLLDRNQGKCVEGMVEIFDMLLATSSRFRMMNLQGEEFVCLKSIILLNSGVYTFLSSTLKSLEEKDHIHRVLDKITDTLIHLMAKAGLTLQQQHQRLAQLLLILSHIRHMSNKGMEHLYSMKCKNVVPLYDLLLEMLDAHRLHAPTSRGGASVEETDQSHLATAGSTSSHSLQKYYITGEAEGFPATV
# D(1A) dopamine receptor = D(1A) dopamine receptor (Homo sapiens, UniProt P21728); format: functional, cell-based
# Sequence of D(1A) dopamine receptor (P21728 whole entry): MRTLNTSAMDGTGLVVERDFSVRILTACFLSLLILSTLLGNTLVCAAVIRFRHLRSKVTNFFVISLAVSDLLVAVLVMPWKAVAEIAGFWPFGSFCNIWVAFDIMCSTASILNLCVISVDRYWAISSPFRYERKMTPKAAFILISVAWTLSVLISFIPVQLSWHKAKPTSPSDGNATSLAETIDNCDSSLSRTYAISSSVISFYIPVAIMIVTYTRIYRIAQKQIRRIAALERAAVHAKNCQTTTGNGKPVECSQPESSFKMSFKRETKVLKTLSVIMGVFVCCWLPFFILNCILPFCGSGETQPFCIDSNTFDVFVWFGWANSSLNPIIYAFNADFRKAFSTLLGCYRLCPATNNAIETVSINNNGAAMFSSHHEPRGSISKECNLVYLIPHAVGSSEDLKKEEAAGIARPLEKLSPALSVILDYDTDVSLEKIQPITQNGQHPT
# Histamine H1 receptor = Histamine H1 receptor (Homo sapiens, UniProt P35367); format: functional, cell-based
# Sequence of Histamine H1 receptor (P35367 whole entry): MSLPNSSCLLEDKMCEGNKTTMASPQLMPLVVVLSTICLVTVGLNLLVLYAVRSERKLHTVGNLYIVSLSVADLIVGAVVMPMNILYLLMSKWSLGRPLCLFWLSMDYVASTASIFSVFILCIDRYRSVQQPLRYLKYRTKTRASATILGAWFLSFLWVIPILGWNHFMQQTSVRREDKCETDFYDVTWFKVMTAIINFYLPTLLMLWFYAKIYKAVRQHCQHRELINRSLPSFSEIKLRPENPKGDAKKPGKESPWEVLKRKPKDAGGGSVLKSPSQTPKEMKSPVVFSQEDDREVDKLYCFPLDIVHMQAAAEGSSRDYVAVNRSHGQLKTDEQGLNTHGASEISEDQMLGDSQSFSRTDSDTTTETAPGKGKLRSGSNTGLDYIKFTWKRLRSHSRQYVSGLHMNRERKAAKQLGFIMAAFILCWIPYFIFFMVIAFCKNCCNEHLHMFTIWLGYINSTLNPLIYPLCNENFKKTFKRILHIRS
# Acetylcholinesterase = Acetylcholinesterase (Homo sapiens, UniProt P22303); format: functional
# Sequence of Acetylcholinesterase (P22303 whole entry): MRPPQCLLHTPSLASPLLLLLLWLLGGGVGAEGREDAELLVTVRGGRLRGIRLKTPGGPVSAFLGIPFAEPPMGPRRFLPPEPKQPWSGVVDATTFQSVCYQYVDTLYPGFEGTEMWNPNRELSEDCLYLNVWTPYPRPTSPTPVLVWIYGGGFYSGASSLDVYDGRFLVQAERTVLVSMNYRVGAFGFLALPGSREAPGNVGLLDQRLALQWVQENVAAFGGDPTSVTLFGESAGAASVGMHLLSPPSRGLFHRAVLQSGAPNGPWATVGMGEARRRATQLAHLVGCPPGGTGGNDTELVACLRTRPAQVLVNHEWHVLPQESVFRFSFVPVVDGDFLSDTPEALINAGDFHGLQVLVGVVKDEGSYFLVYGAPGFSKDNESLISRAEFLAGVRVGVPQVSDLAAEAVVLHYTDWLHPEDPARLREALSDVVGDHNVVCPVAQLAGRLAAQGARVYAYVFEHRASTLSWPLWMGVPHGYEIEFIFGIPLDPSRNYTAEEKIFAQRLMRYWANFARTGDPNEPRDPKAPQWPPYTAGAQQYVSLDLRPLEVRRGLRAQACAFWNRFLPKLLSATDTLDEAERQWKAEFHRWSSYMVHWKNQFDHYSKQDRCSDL
# [4] = target: T5, Peroxisome proliferator-activated receptor alpha (Homo sapiens, UniProt Q07869); format: functional
# T5 sequence (Q07869 whole entry): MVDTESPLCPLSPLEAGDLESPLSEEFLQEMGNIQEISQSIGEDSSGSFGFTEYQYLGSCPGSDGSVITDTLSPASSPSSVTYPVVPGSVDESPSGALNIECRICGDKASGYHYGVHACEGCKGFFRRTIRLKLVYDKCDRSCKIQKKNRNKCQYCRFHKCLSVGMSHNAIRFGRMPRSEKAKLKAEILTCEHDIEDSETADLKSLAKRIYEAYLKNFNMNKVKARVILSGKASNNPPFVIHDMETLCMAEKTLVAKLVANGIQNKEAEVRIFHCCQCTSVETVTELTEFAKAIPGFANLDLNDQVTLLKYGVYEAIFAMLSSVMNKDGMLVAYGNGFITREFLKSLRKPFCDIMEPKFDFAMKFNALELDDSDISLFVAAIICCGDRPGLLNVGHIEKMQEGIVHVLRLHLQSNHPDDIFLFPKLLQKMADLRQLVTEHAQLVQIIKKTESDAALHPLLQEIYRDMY
# Note: assay procedure not described here.
smiles,measurement,setting,value
Nc1nc(N)c2nc(-c3ccccc3)c(N)nc2n1,AC50,[1],> 10 µM
same,AC50,D(1B) dopamine receptor,> 10 µM
same,AC50,[2],> 10 µM
same,AC50,Substance-K receptor,> 10 µM
same,AC50,[3],> 30 µM
NS(=O)(=O)c1cc2c(cc1Cl)NCNS2(=O)=O [HYDROCHLOROTHIAZIDE],AC50,[1],> 10 µM
same,AC50,D(1B) dopamine receptor,> 10 µM
same,AC50,[2],> 10 µM
same,AC50,Substance-K receptor,> 10 µM
OCc1cc([C@@H](O)CNCCCCCCOCCOCc2c(Cl)cccc2Cl)ccc1O [VILANTEROL],AC50,Estrogen receptor,> 30 µM
COC(=O)[C@@H]1CC2=CC(=O)CC[C@]2(C)[C@@]23O[C@@H]2C[C@@]2(C)[C@@H](CC[C@@]24CCC(=O)O4)[C@H]13 [EPLERENONE],AC50,D(1A) dopamine receptor,> 30 µM
same,AC50,Estrogen receptor,> 30 µM
same,AC50,Histamine H1 receptor,> 30 µM
same,AC50,Acetylcholinesterase,> 30 µM
CC(C)C(=O)Nc1ccc([N+](=O)[O-])c(C(F)(F)F)c1 [FLUTAMIDE],AC50,[3],> 30 µM
CC(N)Cc1ccccc1 (stereo unspecified) [AMPHETAMINE],AC50,Estrogen receptor,> 30 µM
C#C[C@]1(O)CC[C@H]2[C@@H]3CCc4cc(O)ccc4[C@H]3CC[C@@]21C [ETHINYL ESTRADIOL],AC50,[2],> 30 µM
same,AC50,[4],> 30 µM
CC(C)NNC(=O)c1ccncc1 [IPRONIAZID],AC50,D(1A) dopamine receptor,> 30 µM
same,AC50,Estrogen receptor,> 30 µM
same,AC50,Acetylcholinesterase,> 30 µM
CC[C@H](C)C(=O)O[C@H]1C[C@H](O)C=C2C=C[C@H](C)[C@H](CC[C@@H](O)C[C@@H](O)CC(=O)O)[C@H]21 [PRAVASTATIN],AC50,Estrogen receptor,> 30 µM
CO/N=C(\C(=O)N[C@@H]1C(=O)N2C(C(=O)[O-])=C(C[N+]3(C)CCCC3)CS[C@H]12)c1csc(N)n1,AC50,D(1A) dopamine receptor,> 300 µM
same,AC50,Estrogen receptor,54 µM
same,AC50,Acetylcholinesterase,> 300 µM
CCOC(=O)[C@H](CCc1ccccc1)N[C@@H](C)C(=O)N1CCC[C@H]1C(=O)O,AC50,[1],> 10 µM
same,AC50,D(1B) dopamine receptor,> 10 µM
same,AC50,[2],> 10 µM
same,AC50,Substance-K receptor,> 10 µM
CN1CCCC(n2nc(Cc3ccc(Cl)cc3)c3ccccc3c2=O)CC1 (stereo unspecified) [AZELASTINE],AC50,Estrogen receptor,> 30 µM
O=C(CCCCCCC(=O)Nc1ccccc1)NO [VORINOSTAT],AC50,[1],> 10 µM
same,AC50,Histamine H1 receptor,> 30 µM
same,AC50,Substance-K receptor,> 10 µM
CC(C(=O)O)c1ccc(N2CC=CC2)c(Cl)c1 (stereo unspecified) [PIRPROFEN],AC50,Histamine H1 receptor,> 30 µM
CC(C)Cc1ccc(CC(=O)O)cc1 [IBUFENAC],AC50,D(1A) dopamine receptor,> 30 µM
same,AC50,Acetylcholinesterase,> 30 µM
NC(N)=Nc1nc(CSCCC(N)=NS(N)(=O)=O)cs1 [FAMOTIDINE],AC50,[1],> 10 µM
same,AC50,D(1B) dopamine receptor,> 10 µM
same,AC50,[2],> 10 µM
same,AC50,Substance-K receptor,> 10 µM
Oc1ncnc2[nH]ncc12 [ALLOPURINOL],AC50,[3],> 30 µM
NC(=O)c1cnccn1 [PYRAZINAMIDE],AC50,[3],> 30 µM
COc1ccc2c(c1)C(=O)N(CCc1ccc(S(=O)(=O)NC(=O)NC3CCCCC3)cc1)C(=O)C2(C)C [GLIQUIDONE],AC50,[4],> 30 µM
CC(=O)c1ccc2c(c1)N(CCCN1CCN(CCO)CC1)c1ccccc1S2 [ACETOPHENAZINE],AC50,D(1A) dopamine receptor,1.11 µM
same,AC50,Estrogen receptor,> 30 µM
O=C(NC[C@H]1CN(c2ccc(N3CCOCC3=O)cc2)C(=O)O1)c1ccc(Cl)s1 [RIVAROXABAN],AC50,[4],> 30 µM
